Reference: ChEMBL document CHEMBL4308842, “Allosteric Modulators of HSP90 and HSP70: Dynamics Meets Function through Structure-Based Drug Design” (J Med Chem, 2018)
One block for each compound: values may come before it.

Key:
[1] = system: SK-BR-3; assay: Antiproliferative activity against human SKBR3 cells; format: functional, cell-based
[2] = system: MCF7; assay: Antiproliferative activity against human MCF7 cells; format: functional, cell-based
[3] = system: Jurkat; assay: Potency index, ratio of novobiocin IC50 to compound IC50 for antiproliferative activity against human Jurkat T cells; format: functional
[4] = system: Jurkat; assay: Potency index, ratio of 17-AAG IC50 to compound IC50 for antiproliferative activity against human Jurkat T cells; format: functional
[5] = system: Jurkat; assay: Antiproliferative activity against human Jurkat T cells after 48 hrs; format: functional, cell-based
[6] = system: Jurkat; assay: Potency index, ratio of etoposide IC50 to compound IC50 for antiproliferative activity against human Jurkat T cells; format: functional
[7] = molecular target: Heat shock protein HSP90 (Homo sapiens, UniProt P07900+P08238); assay: Binding affinity to HSP90 (unknown origin) by SPR analysis; format: protein assay
[8] = molecular target: Chaperone protein dnaK (Escherichia coli) (UniProt C3TRK2); assay: Inhibition of Escherichia coli DNAK ATPase activity after 3 hrs relative to control; conditions: concentration not given here
Sequence of Chaperone protein dnaK (Escherichia coli) (C3TRK2 1-638): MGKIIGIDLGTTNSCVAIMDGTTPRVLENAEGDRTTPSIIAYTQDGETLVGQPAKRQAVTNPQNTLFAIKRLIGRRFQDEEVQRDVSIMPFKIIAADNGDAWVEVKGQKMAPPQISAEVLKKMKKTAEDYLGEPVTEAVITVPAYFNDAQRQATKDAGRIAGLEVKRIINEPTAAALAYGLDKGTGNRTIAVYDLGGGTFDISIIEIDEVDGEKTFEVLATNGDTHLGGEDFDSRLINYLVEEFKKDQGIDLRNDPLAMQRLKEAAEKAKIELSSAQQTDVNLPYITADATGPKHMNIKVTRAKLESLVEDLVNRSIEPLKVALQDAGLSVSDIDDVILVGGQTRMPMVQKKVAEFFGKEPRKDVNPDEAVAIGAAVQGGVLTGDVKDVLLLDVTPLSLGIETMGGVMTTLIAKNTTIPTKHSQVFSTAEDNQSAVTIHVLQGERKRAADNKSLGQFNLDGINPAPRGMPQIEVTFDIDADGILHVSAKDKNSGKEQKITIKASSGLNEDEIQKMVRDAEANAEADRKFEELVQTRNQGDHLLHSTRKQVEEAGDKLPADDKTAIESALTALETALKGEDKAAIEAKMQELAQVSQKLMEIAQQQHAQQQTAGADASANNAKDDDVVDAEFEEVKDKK

SMILES: O=C(O[C@@H]1Cc2c(O)cc(O)cc2O[C@@H]1c1cc(O)c(O)c(O)c1)c1cc(O)c(O)c(O)c1 [EPIGALOCATECHIN GALLATE]
- IC50 [1]: 4000 nM
- IC50 [2]: 4000 nM

SMILES: COc1cccc(-c2cc(C(=O)Nc3cc4cc(OC)c(OC(C)=O)c(C)c4oc3=O)ccc2OC)c1
- Ratio IC50 [3]: 600
- Ratio IC50 [4]: 10
- IC50 [5]: 416 nM
- Ratio IC50 [6]: 3
- Kd [7]: 1000 to 2000 nM

- inhibition [8]: 75%
SMILES: O=c1c(O)c(-c2cc(O)c(O)c(O)c2)oc2cc(O)cc(O)c12

SMILES: CO[C@@H]1[C@@H](OC(=O)c2ccc(C)[nH]2)[C@@H](O)[C@H](Oc2ccc3c(O)c(NC(=O)c4c[nH]c(C(=O)Nc5c(O)c6ccc(O[C@@H]7OC(C)(C)[C@H](OC)[C@@H](OC(=O)c8ccc(C)[nH]8)[C@H]7O)c(C)c6oc5=O)c4C)c(=O)oc3c2C)OC1(C)C
- IC50 [1]: 2000 nM
- IC50 [2]: 2000 nM
